Experimental data published in PubChem BioAssay (NCI).
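Each compound was tested at five concentrations against cells in 96-well plates for 48 hours. GI50: concentration for 50% inhibition of growth. TGI: total growth inhibition.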

Legend:
Test in all cases: NCI-60 cell line screen, 48 h
ACHN renal = test system: ACHN renal
COLO 205 colon = test system: COLO 205 colon
DU-145 prostate = test system: DU-145 prostate
EKVX NSCLC = test system: EKVX NSCLC
HCC-2998 colon = test system: HCC-2998 colon
MDA-N = test system: MDA-N
SF-295 CNS = test system: SF-295 CNS
SK-MEL-2 melanoma = test system: SK-MEL-2 melanoma
SK-MEL-28 melanoma = test system: SK-MEL-28 melanoma
SNB-19 CNS = test system: SNB-19 CNS
SR leukemia = test system: SR leukemia
SW-620 colon = test system: SW-620 colon
UACC-257 melanoma = test system: UACC-257 melanoma
SK-OV-3 ovarian = test system: SK-OV-3 ovarian

Row | SMILES | TGI (ACHN renal) [µM] | TGI (COLO 205 colon) [µM] | TGI (DU-145 prostate) [µM] | TGI (EKVX NSCLC) [µM] | TGI (HCC-2998 colon) [µM] | TGI (MDA-N) [µM] | TGI (SF-295 CNS) [µM] | TGI (SK-MEL-2 melanoma) [µM] | TGI (SK-MEL-28 melanoma) [µM] | TGI (SNB-19 CNS) [µM] | TGI (SR leukemia) [µM] | TGI (SW-620 colon) [µM] | TGI (UACC-257 melanoma) [µM] | TGI (SK-OV-3 ovarian) [µM] | GI50 (SF-295 CNS) [µM] | GI50 (SK-OV-3 ovarian) [µM]
1 | CCOC(=O)c1ncn(CCc2ccc(Cl)cc2)c1C | > 100 | > 100 | > 100 | > 100 | > 100 | > 100 | > 100 | > 100 | > 100 | > 100 | > 100 | > 100 | > 100 |  |  | 
2 | c1ccc2sc(SSSc3nc4ccccc4s3)nc2c1 | > 100 | > 100 | > 100 | > 100 | > 100 | > 100 | > 100 | > 100 | > 100 | > 100 | > 100 | > 100 | > 100 | > 100 |  | 
3 | Cn1nnc2c(C(N)=S)ncn2c1=O | > 100 | > 100 | > 100 | > 100 | > 100 | > 100 | > 100 | > 100 | > 100 | > 100 | > 100 | > 100 | > 100 | > 100 |  | 
4 | Cc1ccc2[nH]c3c(c(=O)n(C)c(=O)n3C)c2c1 | > 100 | > 100 | > 100 | > 100 | > 100 | > 100 | > 100 | > 100 |  | > 100 | > 100 | > 100 | > 100 | > 100 |  | 
5 | NS(=O)(=O)c1nnc(NS(=O)(=O)c2ccccc2[N+](=O)[O-])s1 | > 100 | > 100 | > 100 | > 100 | > 100 |  | > 100 | > 100 | > 100 | > 100 | > 100 | > 100 |  | > 100 |  | 
6 | O=C1C=C(c2ccccc2)OC1C1Sc2ccccc2NC1=O (stereo unspecified) | > 62.6 | 18.5 | > 81 | > 100 | > 31.3 | > 100 | 27 | > 41.1 | > 100 | > 82.8 |  | > 100 | > 24.4 | > 33.8 |  | 
7 | N=c1oc2ccccc2cc1C(=O)Nc1cccc2ccccc12 | > 100 | > 100 | > 100 |  | > 100 | > 100 |  | > 100 | > 100 | > 100 | > 100 | > 100 | > 100 | > 100 |  | 
8 | O=C(OCc1ccccc1)C(Cc1ccc(OCc2ccccc2)cn1)NC(=O)C(F)(F)F (stereo unspecified) | > 100 | > 100 | > 100 | > 100 | > 100 | > 100 | > 100 |  | > 100 | > 100 | > 100 | > 100 | > 100 |  |  | 
9 | O=C(Sc1c(-c2ccccc2)c(=O)n(-c2ccccc2)c(=S)n1-c1ccccc1)c1ccccc1 | > 100 | > 100 | > 100 | > 100 |  | > 100 | > 100 | > 100 | > 100 | > 100 | > 100 | > 100 | > 100 | > 100 |  | 
10 | O=Cc1ccc2ccocc1-2 | > 100 | > 100 | > 100 | > 100 | > 100 | > 100 | > 100 | > 100 |  | > 100 | > 100 | > 100 | > 100 | > 100 |  | 
11 | COC(=O)/C=C/CCC#Cc1ccccc1C#CCC/C=C/C(=O)OC | > 100 | 42.3 | > 100 | > 100 | > 100 | > 100 | > 100 |  | > 100 | > 100 | > 100 | > 100 | > 100 | > 100 |  | 
12 | C/C=C/c1cc2c(cc1O)CC[C@@H]1[C@@H]2CC[C@]2(C)[C@@H](O)CC[C@@H]12 | 15.5 | 24.4 | 3.05 | 24.7 | 7.13 |  | 14.2 | 16.7 | 21.6 | 14.9 | > 19.6 | 19 | 22.4 | 15.3 |  | 
13 | C=C(C)[C@H]1CC[C@@]23O[C@@H]2[C@@H](C[C@@]2(C)CC(=O)[C@H](CC(=O)C1)O2)OC(=O)[C@@]12CC[C@H](C(=C)C)CC(=O)C[C@H]4O[C@](C)(CC4=O)C[C@@H](OC3=O)[C@@H]1O2 | > 100 | > 100 | > 100 | > 100 | > 100 | > 100 | > 100 | > 100 | > 100 | > 100 |  |  | > 100 | > 100 |  | 
14 | Cc1ccc(N2C(=O)C3c4[nH]c5ccc(C)cc5c4C4CCC(C(C)(C)C)CC4C3C2=O)cc1 (stereo unspecified) |  | > 100 | 62 | 43.4 |  | 70.1 | 40.7 | 99.5 | 90.6 | 80.5 |  | 58.7 | > 100 |  |  | 
15 | N#Cc1c(Cl)cc(C#N)n2c1nc1ccccc12 | 28.7 | 15.3 | 41.3 | 39.5 | 40.9 | 22.7 | 30.1 | 33 | 26.5 | > 84.7 |  | 9.1 | 29.7 | 51.3 |  | 
16 | CCOC(=O)[C@@H]1[C@@H](c2ccccc2)N(C)O[C@@]1(c1ccccc1)C(F)(F)F | > 100 | > 100 | > 100 | > 100 |  | > 100 | > 100 | > 100 | > 100 | > 100 |  | > 100 | > 100 | > 100 |  | 
17 | CC[C@H](C)[C@@H]([C@@H](CC(=O)N1CCC[C@H]1[C@H](OC)[C@@H](C)C(=O)NCCc1ccccc1)OC)N(C)C(=O)C(NC(=O)[C@H](C(C)C)N(C)C)C(C)C (stereo partly specified) | > 10 | 0.000267 | 0.000963 | 7.57 | 0.00228 | 0.000164 |  |  | > 10 |  |  | > 10 | > 10 | 3.48 | 0.000281 | 0.00047
18 | CNc1cc([N+](=O)[O-])ccc1C(=O)N1CCC[C@H]1CO | > 100 |  | > 100 | > 100 |  | > 100 | > 100 | > 100 | > 100 | > 100 | > 100 | > 100 | > 100 | > 100 |  | 

Row | SMILES | TGI (ACHN renal) [µM] | TGI (COLO 205 colon) [µM] | TGI (DU-145 prostate) [µM] | TGI (EKVX NSCLC) [µM] | TGI (HCC-2998 colon) [µM] | TGI (MDA-N) [µM] | TGI (SF-295 CNS) [µM] | TGI (SK-MEL-2 melanoma) [µM] | TGI (SK-MEL-28 melanoma) [µM] | TGI (SNB-19 CNS) [µM] | TGI (SR leukemia) [µM] | TGI (SW-620 colon) [µM] | TGI (UACC-257 melanoma) [µM] | TGI (SK-OV-3 ovarian) [µM] | GI50 (SF-295 CNS) [µM] | GI50 (SK-OV-3 ovarian) [µM]
19 | O=c1[nH]c2c(c(=O)[nH]1)SC(c1ccccc1)C2 (stereo unspecified) | > 100 | > 100 | > 100 | > 100 | > 100 | > 100 | > 100 | > 100 | > 100 | > 100 |  | > 100 | > 100 |  |  | 
20 | CC1(C)Cc2c(sc3[nH]c(=S)[nH]c(=S)c23)CS1 |  | > 100 | > 100 |  |  | > 100 |  | > 100 | > 100 | > 100 | > 100 | > 100 | 73.8 | 99.7 |  | 
21 | COc1ccc(-c2sc(Br)c3c2C(=O)C2OC(=O)NC32)cc1OC (stereo unspecified) | > 100 | > 100 | > 100 | > 100 |  | > 100 | > 100 | > 100 |  | > 100 | > 100 | > 100 | > 100 | > 100 |  | 
22 | CCO/C(O)=C(/C(=N)N1CCOCC1)C(=O)NC(C)C | > 100 | > 100 | > 100 | > 100 | > 100 | > 100 | > 100 | > 100 | > 100 | > 100 |  | > 100 | > 100 | > 100 |  | 
23 | Cc1c(C(=O)c2ccccc2)[n+](=O)c2cc(Cl)c(Cl)cc2n1[O-] | 28.5 | 33.5 | 31.5 | 26.3 | 2.9 | 25.9 | 28.7 | 21.3 | 29.1 | 37.4 | 3.32 |  | 16.5 | 41.4 |  | 
24 | COCn1cc(C2=C(C)C(=O)C(C)=C(C)C2=O)cn1 | > 100 | > 100 | > 100 | 32.5 | > 100 | > 100 | > 100 | > 100 | > 100 | > 100 | 65.9 | > 100 | > 100 |  |  | 
25 | O=C1CSC(c2ccccc2O)N1c1ccc2c(c1)Oc1c(Cl)c3c(c(Cl)c1=N2)Oc1cc(N2C(=O)CSC2c2ccccc2O)ccc1N=3 (stereo unspecified) | 55.1 |  | > 100 | > 100 | > 100 | > 100 | > 100 | > 100 | > 100 |  | > 100 | > 100 | > 100 | 71.3 |  | 
26 | O=c1[nH]c(=O)c2c([nH]1)[nH]c1ccc(Br)cc12 | > 100 | > 100 | > 100 | > 100 | > 100 | > 100 | > 100 | > 100 |  | > 100 | > 100 | > 100 | > 100 | 56.4 |  | 
27 | Cc1cc(C)c(NS(=O)c2cccc(C(F)(F)F)c2)c(C)c1 (stereo unspecified) | > 100 | > 100 | > 100 |  |  | > 100 | > 100 |  | > 100 | > 100 | > 100 | > 100 | > 100 |  |  | 
28 | C/C(=C\COP(=O)(O)OP(=O)(O)O)CCCCCCOCc1ccccc1 | > 100 | > 100 | > 100 | > 100 | > 100 |  | > 100 |  | > 100 | > 100 | > 100 | > 100 | > 100 | > 100 |  | 
29 | COc1ccccc1-n1nnc2c(N)nc(N)nc21 | > 100 | > 100 | > 100 | > 100 |  | > 100 | > 100 | > 100 | > 100 | > 100 | > 100 | > 100 | > 100 | > 100 |  | 
30 | CC(Br)CN1CCOCC1 (stereo unspecified) | > 100 | > 100 | > 100 | > 100 | > 100 |  |  | > 100 | > 100 | > 100 | > 100 | > 100 | > 100 | > 100 |  | 
31 | C=C(COCO)C(C)=O | 29.2 | 20.8 | > 65.8 | 46.9 | > 58.4 | 33.5 | > 100 | 40.5 | 32 | > 100 |  | 11.1 | 31.1 | > 100 |  | 
32 | Clc1cccc(-c2nc3cccc4c3n2Cc2ncccc2-4)c1 | > 100 | > 100 | > 100 | > 100 | > 100 | > 100 | > 100 |  | > 100 | > 100 | > 100 | > 100 | > 100 | > 100 |  | 
33 | O=C1Nc2ccc(Br)cc2/C1=N/S(=O)(=O)O | > 100 | > 100 | > 100 | 85.7 | > 100 | 26.6 | > 100 | 22.4 | > 100 | > 100 |  | > 100 | 31.4 | > 100 |  | 
34 | CCCCC(=O)/C=c1/cc(C)[nH]c2cccc3cnn1c32 | > 100 | > 100 | > 100 | > 100 |  | > 100 | > 100 | > 100 | > 100 | > 100 | > 100 | > 100 | > 100 | > 100 |  | 
35 | C=C1N(S(=O)(=O)c2ccc(C)cc2)C(=O)OCC12CCCC2 | > 100 | > 100 | > 100 | > 100 | > 100 | > 100 | > 100 |  | > 100 | > 100 | > 100 | > 100 | > 100 | > 100 |  | 
